Target: T1, human MC5R (hMC5R) (Homo sapiens, UniProt P33032)
T1 construct: purchased Perkin Elmer RBXMC5M400UA
Assay: Human MC5R radioligand binding assay (membranes, [125I] NDP-MSH displacement)
Conditions: hMC5R binding; tested as trifluoroacetate or hydrochloride salts, or free bases; read-out: MC5R radioligand IC50
Method in brief: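 Frozen human MC5R membranes incubated with test compound and in-house iodogen-labeled, HPLC-purified [125I]NDP-MSH for 1 hr at 37° C. Binding measured as displacement of the radioligand.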

T1 sequence (P33032 whole entry): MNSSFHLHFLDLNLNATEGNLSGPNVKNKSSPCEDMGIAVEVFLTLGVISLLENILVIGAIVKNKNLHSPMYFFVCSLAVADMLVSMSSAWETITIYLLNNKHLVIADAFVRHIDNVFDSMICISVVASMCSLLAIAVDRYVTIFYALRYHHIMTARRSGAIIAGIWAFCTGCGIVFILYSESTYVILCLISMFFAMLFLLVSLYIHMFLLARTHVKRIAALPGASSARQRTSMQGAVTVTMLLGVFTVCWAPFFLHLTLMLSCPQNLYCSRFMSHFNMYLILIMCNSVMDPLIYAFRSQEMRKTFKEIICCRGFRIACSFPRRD

Row | SMILES | IC50 [µM]
1 | O=C(NC[C@@H]1CCN(CC(c2ccccc2)c2ccccc2)C(=O)[C@H](CCN2CCCCC2)N1)c1cccc(C(F)(F)F)c1 [Compound 436, N-(((3S,5S)-1-(2,2-diphenylethyl)-2-oxo-3-(2-(piperidin-1-yl)ethyl)-1,4-diazepan-5-yl)methyl)-3-(trifluoromethyl)benzamide] | < 1
2 | NCC[C@@H]1N[C@H](CNC(=O)c2cccc(C(F)(F)F)c2)CCN(CC(c2ccccc2)c2ccccc2)C1=O [Compound 437, N-(((3S,5S)-3-(2-aminoethyl)-1-(2,2-diphenylethyl)-2-oxo-1,4-diazepan-5-yl)methyl)-3-(trifluoromethyl)benzamide] | < 10
3 | CC(C)NCC[C@@H]1N[C@H](CNC(=O)c2ccc3cc(Cl)ccc3c2)CCN(Cc2cc(Cl)cc(Cl)c2)C1=O [Compound 438, 6-chloro-N-(((3S,5S)-1-(3,5-dichlorobenzyl)-3-(2-(isopropylamino)ethyl)-2-oxo-1,4-diazepan-5-yl)methyl)-2-naphthamide] | < 0.01
4 | CC(C)NCC[C@@H]1N[C@H](CNC(=O)c2ccc(Cl)c(Cl)c2)CCN(Cc2cc(Cl)cc(Cl)c2)C1=O [Compound 439, 3,4-dichloro-N-(((3S,5S)-1-(3,5-dichlorobenzyl)-3-(2-(isopropylamino)ethyl)-2-oxo-1,4-diazepan-5-yl)methyl)benzamide] | < 0.1
5 | CC[C@H](CN1CC[C@@H](CNC(=O)c2ccc3cc(Cl)ccc3c2)N[C@@H](CCNC(C)C)C1=O)c1ccccc1 [Compound 440, 6-chloro-N-(((3S,5S)-3-(2-(isopropylamino)ethyl)-2-oxo-1-((S)-2-phenylbutyl)-1,4-diazepan-5-yl)methyl)-2-naphthamide] | < 0.01
6 | CC[C@H](CN1CC[C@@H](CNC(=O)c2ccc3cc(Cl)ccc3c2)N[C@@H](CCN)C1=O)c1ccccc1 [Compound 441, N-(((3S,5S)-3-(2-aminoethyl)-2-oxo-1-((S)-2-phenylbutyl)-1,4-diazepan-5-yl)methyl)-6-chloro-2-naphthamide] | < 0.1
7 | CC[C@H](CN1CC[C@@H](CNC(=O)c2ccc(Cl)c(Cl)c2)N[C@@H](CCN(C)Cc2ccccc2)C1=O)c1ccccc1 [Compound 442, N-(((3S,5S)-3-(2-(benzyl(methyl)amino)ethyl)-2-oxo-1-((S)-2-phenylbutyl)-1,4-diazepan-5-yl)methyl)-3,4-dichlorobenzamide] | < 0.01
8 | CC[C@H](CN1CC[C@@H](CNC(=O)c2ccc(Cl)c(Cl)c2)N[C@@H](CCN2CCNCC2)C1=O)c1ccccc1 [Compound 443, 3,4-dichloro-N-(((3S,5S)-2-oxo-1-((S)-2-phenylbutyl)-3-(2-(piperazin-1-yl)ethyl)-1,4-diazepan-5-yl)methyl)benzamide] | < 0.1
9 | CCCCCN(C)CC[C@@H]1N[C@H](CNC(=O)c2ccc(Cl)c(Cl)c2)CCN(C[C@@H](CC)c2ccccc2)C1=O [Compound 444, 3,4-dichloro-N-(((3S,5S)-3-(2-(methyl(pentyl)amino)ethyl)-2-oxo-1-((S)-2-phenylbutyl)-1,4-diazepan-5-yl)methyl)benzamide] | < 0.1
10 | CC[C@H](CN1CC[C@@H](CNC(=O)c2ccc(Cl)c(Cl)c2)N[C@@H](CCN(C(C)C)C(C)C)C1=O)c1ccccc1 [Compound 445, 3,4-dichloro-N-(((3S,5S)-3-(2-(diisopropylamino)ethyl)-2-oxo-1-((S)-2-phenylbutyl)-1,4-diazepan-5-yl)methyl)benzamide] | < 0.01
11 | CC[C@H](CN1CC[C@@H](CNC(=O)c2ccc(Cl)c(Cl)c2)N[C@@H](CCN2CCC(C)CC2)C1=O)c1ccccc1 [Compound 446, 3,4-dichloro-N-(((3S,5S)-3-(2-(4-methylpiperidin-1-yl)ethyl)-2-oxo-1-((S)-2-phenylbutyl)-1,4-diazepan-5-yl)methyl)benzamide] | < 0.01
12 | CC[C@H](CN1CCC(CNC(=O)c2ccc3cc(Cl)ccc3c2)NC(C2CCNCC2)C1=O)c1ccccc1 (stereo partly drawn) [Compound 447, (S)-6-chloro-N-((2-oxo-1-(2-phenylbutyl)-3-(piperidin-4-yl)-1,4-diazepan-5-yl)methyl)-2-naphthamide] | < 0.1

— patent US8008291B2 (Mimetica Pty Ltd, priority 2008, dated 2011)
